This assay in a line: Inhibition of soybean lipoxygenase assessed as formation of 13-hydroperoxylinoleic acid after 7 mins.

Structures are written as SMILES.

One may read the IC50 as the point on the concentration scale where inhibition reaches its midpoint. Turning to `COc1ccc2cc(C(C)C(=O)N3CCSCC3)ccc2c1` (stereo unspecified), the concentration for half-maximal inhibition (IC50) worked out at 12 µM.

Source of the values: BindingDB's records for doi:10.1016/j.bmcl.2015.12.063 (Aristotelian University of Thessaloniki, 2016).
